Patent EP4610269A1, “UROKINASE PLASMINOGEN ACTIVATOR SURFACE RECEPTOR (UPAR) LIGANDS FOR DIAGNOSTIC OR THERAPEUTIC USE” (3B Pharmaceuticals GmbH, priority 2024, dated 2025)
Where a SMILES comes first, the peptide text is derived from it. Bridges are numbered along the chain shown (N, C = ends). [ ]: non-standard residue; d: D form. The star is where a group is joined. X3 = NC(=O)[C@H](CCCCNC(=O)CN1CCN(CC(=O)O)CCN(CC(=O)O)CCN(CC(=O)O)CC1)NC(=O)CCC(=O)NCCCOCCOCCOCCCN*; DOTA = O=C(O)CN1CCN(CC(=O)O)CCN(CC(=O)*)CCN(CC(=O)O)CC1; Phe(4-guanidino) = N=C(N)Nc1ccc(C[C@H](N)C(=O)O)cc1; Lys(Me3) = C[N+](C)(C)CCCC[C@H](N)C(=O)O; 2Nal = N[C@@H](Cc1ccc2ccccc2c1)C(=O)O; Dopa = N[C@@H](Cc1ccc(O)c(O)c1)C(=O)O; Hyp = O=C(O)[C@@H]1C[C@@H](O)CN1; Pentanoyl(4-Me) = CC(C)CCC(=O)*; Cit = NC(=O)NCCC[C@H](N)C(=O)O; Butoxycarbonyl = CCCCOC(=O)*; Api = NC1(C(=O)O)CCNCC1; Nva = CCC[C@H](N)C(=O)O; Hexanoyl = CCCCCC(=O)*; Pentanoyl = CCCCC(=O)*

How the values were obtained:
[1] = biological target: T1, uPAR-expressing HEC-265 human endometrial adenocarcinoma cells (Homo sapiens, UniProt Q03405); test: Competitive FACS binding assay; conditions: pIC50 category of FACS binding
T1 construct: Cell surface uPAR-expressing HEC-265 human endometrial adenocarcinoma cells; host or cells: HEC-265
Description: In order to determine binding of compounds according to the present invention to uPAR-expressing cells, a competitive FACS binding assay was established.
Cell surface uPAR-expressing HEC-265 human endometrial adenocarcinoma cells (Japanese Collection of Research Bioresources, #JCRB1142) were cultured in MEM Eagle with stable glutamine (Pan Biotech, #P04-09500) including 15% fetal bovine serum (Pan Biotech, #P30-3306) and 100 U/ml penicillin and 100 µg/mL streptomycin (Pan Biotech, #P06-07100). Cells were detached with Cell Dissociation Buffer (Thermo Scientific, #13151014) and washed in FACS buffer (PBS (Pan Biotech, #P04-36500) including 1% BSA (SeraCare, #AP-4510-80). Cells were diluted in FACS buffer to a final concentration of 500.000 cells per ml and 200 µl of the cell suspension are transferred to a u-shaped non-binding 96-well plate (Greiner Bio-One, #650901).
For IC50 determination, cells were incubated with 10 nM Bio--Ttds--Ttds--Ttds--Ttds-D-Cha-FsrYLWS-NH2) in the presence of increasing concentrations of non-labeled test compounds at 4°C for 1 hour. Cells were washed twice in FACS buffer. An additional incubation step with 1 µg/mL APC-Streptavidin (Miltenyi; #130-106-791) in 50 µL FACS buffer for 30 minutes on ice was performed followed by two washes with FACS buffer. Cells were resuspended in 200 µl FACS buffer and analyzed in an Attune NxT flow cytometer. Median fluorescence intensities (APC channel) were calculated by Attune NxT software and plotted against peptide concentrations. Four parameter logistic (4PL) curve fitting and pIC50 calculations were performed using ActivityBase software.

human uPAR (uPAR-Fc) = biological target: T2, human uPAR (uPAR-Fc) (Homo sapiens, UniProt Q03405); test: Surface plasmon resonance (SPR) assay, single cycle kinetics; format: binding; conditions: pKD category for uPAR SPR activity assay; uPAR-Fc on Protein A-Chip, 25°C; read-out: pKD CAT (converted)
T2 construct: comprising amino acids Leu23-Arg303 according to UniProt entry Q03405.1; purchased R&D Systems 10378-UK-100
Description: Surface plasmon resonance (SPR) is an optical technique used to measure molecular interactions in real time. SPR occur when plane-polarized light hits a metal film under total internal reflection conditions. SPR signal is directly dependent on the refractive index of the medium on the sensor chip. In an SPR experiment, one molecule (i.e. uPAR) is immobilized on a sensor chip and binding to a second molecule (i.e. test compounds) is measured under flow. The binding of the compound on the surface changes the refractive index. In responses the reflection angle changes as compounds bind and dissociate on the immobilized protein on the surface. This response is measured in resonance units (RU). The RUs are proportional to the number of molecules bound to the surface. […] Kinetic binding constants and equilibrium binding constants can be derived from the sensorgrams.
Surface plasmon resonance (SPR) studies were performed using a Biacore™ T200 or S200 SPR system (Cytiva, formerly GE Life Sciences) to assess binding of compounds to recombinant uPAR protein.
In this example recombinant protein comprising the extracellular domains of human uPAR (uPAR-Fc, R&D Systems, CAT 10378-UK-100, comprising amino acids Leu23-Arg303 according to UniProt entry Q03405.1 and Fc region of human IgG1 at the C-terminus) was immobilized on a Protein A-Chip (Cytiva, CAT 29127555) according to the supplier's instructions. uPAR-Fc was diluted in Running Buffer (10 mM HEPES, 150 mM NaCl, 50 µM EDTA, 0.1% DMSO, 0.05% Tween-20, pH 7.4) to a final concentration of 100 nM and then flushed over the Protein A-Chip to immobilized ~2000 RUs.
Stock solutions of test compounds were prepared by dissolving each compound in DMSO. DMSO stock solution were diluted 1: 1000 in Running Buffer without DMSO. Further sequential dilutions were made with Running Buffer containing 0.1% DMSO. SPR binding analyses were performed in Single Cycle Kinetic (SCK) mode at 25°C. Flow cell without immobilized uPAR-Fc served as reference flow cell. The chip was regenerated with 10 mM Glycine, pH 1,5 to remove the uPAR-Fc from the chip surface after each SCK run. After every three SCK measurements, a blank run with Running Buffer instead of test compound was included to correct for baseline drifts (double reference substraction method). Table 11: SPR protocol steps for SCK with uPAR-Fc immobilized on a Protein A-Chip.
For each test compound, SPR raw data sensorgrams were recorded using the Biacore™ T200 or S200 control software. Sensorgrams were processed and analyzed with the Biacore™ Insight Evaluation software. […] The reference subtracted sensorgram for each test compound was further corrected for baseline drift by subtracting the sensorgram of a reference subtracted blank run (Running Buffer only). The dissociation constant (KD) was calculated from the double reference subtracted sensorgrams using the 1:1 Langmuir binding model. The pKD value (negative decadic logarithm of dissociation constant) was calculated using Microsoft Excel.

T1 sequence (Q03405 23-335): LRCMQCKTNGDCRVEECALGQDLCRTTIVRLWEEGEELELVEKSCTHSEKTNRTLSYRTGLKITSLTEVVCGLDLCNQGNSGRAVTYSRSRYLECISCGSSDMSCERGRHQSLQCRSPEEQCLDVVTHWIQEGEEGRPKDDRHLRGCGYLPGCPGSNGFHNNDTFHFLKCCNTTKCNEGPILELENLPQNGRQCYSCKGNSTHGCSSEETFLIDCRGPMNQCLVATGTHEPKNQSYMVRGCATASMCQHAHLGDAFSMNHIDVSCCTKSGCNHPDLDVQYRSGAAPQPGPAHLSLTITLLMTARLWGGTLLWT
T2 sequence (Q03405 23-303): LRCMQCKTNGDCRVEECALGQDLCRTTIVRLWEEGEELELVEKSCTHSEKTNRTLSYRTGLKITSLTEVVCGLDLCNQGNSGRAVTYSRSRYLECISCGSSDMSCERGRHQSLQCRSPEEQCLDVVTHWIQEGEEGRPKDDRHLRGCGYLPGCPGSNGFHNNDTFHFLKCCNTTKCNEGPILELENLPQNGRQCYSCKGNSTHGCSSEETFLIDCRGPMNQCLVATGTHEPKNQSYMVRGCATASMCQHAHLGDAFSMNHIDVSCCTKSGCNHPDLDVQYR

CC[C@H](C)[C@@H]1NC(=O)[C@@H](C)NC(=O)[C@@H]2CCCN2C(=O)[C@H](Cc2ccccc2)NC(=O)[C@H](Cc2ccc(O)c(O)c2)NC(=O)[C@H](CCC(N)=O)NC(=O)[C@H](CCCNC(N)=O)NC(=O)[C@@H](NC(=O)CCC(C)C)CSSC[C@@H](C(N)=O)NC(=O)[C@H](CC(C)C)NC1=O [UPAR-144, iHex-[Cys-Cit-Gln-Dopa-Phe-Pro-ala-Ile-Leu-Cys]-NH2] ({Pentanoyl(4-Me)}-C[Cit]Q[Dopa]FP[dA]ILC-NH2; disulfide 1-10)
IC50 [1]: ≤ 10 nM
Kd (human uPAR (uPAR-Fc)): < 1.58 nM

CC[C@H](C)[C@@H]1NC(=O)[C@H](CCCCNC(=O)CN2CCN(CC(=O)O)CCN(CC(=O)O)CCN(CC(=O)O)CC2)NC(=O)[C@@H]2CCCN2C(=O)[C@H](Cc2ccccc2)NC(=O)[C@H](Cc2ccc(O)cc2)NC(=O)[C@H](CCC(N)=O)NC(=O)[C@H](CCCNC(N)=O)NC(=O)[C@@H](NC(=O)CCC(C)C)CSSC[C@@H](C(N)=O)NC(=O)[C@H](CC(C)C)NC1=O [UPAR-145, iHex-[Cys-Cit-Gln-Tyr-Phe-Pro-Lys(DOTA)-Ile-Leu-Cys]-NH2] ({Pentanoyl(4-Me)}-C[Cit]QYFPK(DOTA)ILC-NH2; disulfide 1-10)
IC50 [1]: ≤ 10 nM
Kd (human uPAR (uPAR-Fc)): < 1.58 nM

CCCCC(=O)N[C@H]1CSSC[C@@H](C(=O)NCC)NC(=O)[C@H](CCC)NC(=O)[C@H]([C@@H](C)CC)NC(=O)[C@@H]2C[C@@H](O)CN2C(=O)[C@@H]2CCCN2C(=O)[C@H](Cc2ccccc2)NC(=O)[C@H](Cc2ccc(O)cc2)NC(=O)[C@H](CCC(N)=O)NC(=O)[C@H](CCCNC(N)=O)NC1=O [UPAR-146, Pent-[Cys-Cit-Gln-Tyr-Phe-Pro-Hyp-Ile-Nva-Cys]-NHEt] (Pentanoyl-C[Cit]QYFP[Hyp]I[Nva]C-NHEt; disulfide 1-10)
IC50 [1]: 12.6 to 31.6 nM
Kd (human uPAR (uPAR-Fc)): 1.58 to 10 nM

CC[C@H](C)[C@@H]1NC(=O)[C@@H](C)NC(=O)[C@@H]2CCCN2C(=O)[C@H](Cc2ccc3ccccc3c2)NC(=O)[C@H](Cc2ccc(O)cc2)NC(=O)[C@H](CCC(N)=O)NC(=O)[C@H](CCCNC(N)=O)NC(=O)[C@@H](NC(=O)CCC(C)C)CSSC[C@@H](C(N)=O)NC(=O)[C@H](CC(C)C)NC1=O [UPAR-147, iHex-[Cys-Cit-Gln-Tyr-2Ni-Pro-ala-Ile-Leu-Cys]-NH2] ({Pentanoyl(4-Me)}-C[Cit]QY[2Nal]P[dA]ILC-NH2; disulfide 1-10)
IC50 [1]: 12.6 to 31.6 nM
Kd (human uPAR (uPAR-Fc)): 10 to 100 nM

CCCCC(=O)N[C@H]1CSSC[C@@H](C(N)=O)NC(=O)[C@H](CCC)NC(=O)[C@H]([C@@H](C)CC)NC(=O)[C@@H]2C[C@@H](O)CN2C(=O)[C@@H]2CCCN2C(=O)[C@H](Cc2ccccc2)NC(=O)[C@H](Cc2ccc(NC(=N)N)cc2)NC(=O)[C@H](CCCCNC(=O)CN2CCN(CC(=O)O)CCN(CC(=O)O)CCN(CC(=O)O)CC2)NC(=O)[C@H](CCCNC(N)=O)NC1=O [UPAR-149, Pent-[Cys-Cit-Lys(DOTA)-Guf-Phe-Pro-Hyp-Ile-Nva-Cys]-NH2] (Pentanoyl-C[Cit]K(DOTA)[Phe(4-guanidino)]FP[Hyp]I[Nva]C-NH2; disulfide 1-10)
IC50 [1]: ≤ 10 nM
Kd (human uPAR (uPAR-Fc)): < 1.58 nM

CCCCCC(=O)N[C@@H](CC(=O)O)C(=O)N[C@@H](CC(C)C)C(=O)N[C@H]1CSSC[C@@H](C(=O)NCCCOCCOCCOCCCNC(=O)CCC(=O)N[C@@H](CCCCNC(=O)CN2CCN(CC(=O)O)CCN(CC(=O)O)CCN(CC(=O)O)CC2)C(N)=O)NC(=O)[C@H](CC(C)C)NC(=O)[C@H]([C@@H](C)CC)NC(=O)[C@H](C)NC(=O)[C@@H]2CCCN2C(=O)[C@H](Cc2ccccc2)NC(=O)[C@H](Cc2ccc(O)cc2)NC(=O)[C@H](CCSC)NC(=O)[C@H](CCCNC(=N)N)NC1=O [UPAR-150, Hex-Asp-Leu-[Cys-Arg-Met-Tyr-Phe-Pro-Ala-Ile-Leu-Cys]-Ttds-Lys(DOTA)-NH2] (Hexanoyl-DLCRMYFPAILC-X3; disulfide 3-12)
IC50 [1]: 39.8 to 100 nM
Kd (human uPAR (uPAR-Fc)): 1.58 to 10 nM

CC[C@H](C)[C@@H]1NC(=O)C2(CCN(C(=O)CN3CCN(CC(=O)O)CCN(CC(=O)O)CCN(CC(=O)O)CC3)CC2)NC(=O)[C@@H]2CCCN2C(=O)[C@H](Cc2ccccc2)NC(=O)[C@H](Cc2ccc(O)cc2)NC(=O)[C@H](CCC(N)=O)NC(=O)[C@H](CCCNC(=N)N)NC(=O)[C@@H](NC(=O)CCC(C)C)CSSC[C@@H](C(N)=O)NC(=O)[C@H](CC(C)C)NC1=O [UPAR-152, iHex-[Cys-Arg-Gln-Tyr-Phe-Pro-Apc(DOTA)-Ile-Leu-Cys]-NH2] ({Pentanoyl(4-Me)}-CRQYFP[Api](DOTA)ILC-NH2; disulfide 1-10)
IC50 [1]: ≤ 10 nM
Kd (human uPAR (uPAR-Fc)): < 1.58 nM

CCCCC(=O)N[C@H]1CSSC[C@@H](C(N)=O)NC(=O)[C@H](CCC)NC(=O)[C@H]([C@@H](C)CC)NC(=O)[C@@H]2C[C@@H](O)CN2C(=O)[C@@H]2CCCN2C(=O)[C@H](Cc2ccccc2)NC(=O)[C@H](Cc2ccc(O)cc2)NC(=O)[C@H](CCCCNC(=O)CN2CCN(CC(=O)O)CCN(CC(=O)O)CCN(CC(=O)O)CC2)NC(=O)[C@H](CCCC[N+](C)(C)C)NC1=O [UPAR-153, Pent-[Cys-KMe3-Lys(DOTA)-Tyr-Phe-Pro-Hyp-Ile-Nva-Cys]-NH2] (Pentanoyl-C[Lys(Me3)]K(DOTA)YFP[Hyp]I[Nva]C-NH2; disulfide 1-10)
IC50 [1]: ≤ 10 nM
Kd (human uPAR (uPAR-Fc)): < 1.58 nM

CCCCC(=O)N[C@H]1CSSC[C@@H](C(N)=O)NC(=O)[C@H](CCC)NC(=O)[C@H]([C@@H](C)CC)NC(=O)[C@H](CO)NC(=O)[C@@H]2CCCN2C(=O)[C@H](Cc2ccccc2)NC(=O)[C@H](Cc2ccc(O)cc2)NC(=O)[C@H](CCC(N)=O)NC(=O)[C@H](CCCNC(=N)N)NC1=O [UPAR-154, Pent-[Cys-Arg-Gln-Tyr-Phe-Pro-Ser-Ile-Nva-Cys]-NH2] (Pentanoyl-CRQYFPSI[Nva]C-NH2; disulfide 1-10)
IC50 [1]: ≤ 10 nM
Kd (human uPAR (uPAR-Fc)): < 1.58 nM

CCCCOC(=O)N[C@H]1CSSC[C@@H](C(N)=O)NC(=O)[C@H](CC(C)C)NC(=O)[C@H]([C@@H](C)CC)NC(=O)[C@@H](C)NC(=O)[C@@H]2CCCN2C(=O)[C@H](Cc2ccccc2)NC(=O)[C@H](Cc2ccc(O)cc2)NC(=O)[C@H](CCC(N)=O)NC(=O)[C@H](CCCNC(N)=O)NC1=O [UPAR-155, Butoc-[Cys-Cit-Gln-Tyr-Phe-Pro-ala-Ile-Leu-Cys]-NH2] (Butoxycarbonyl-C[Cit]QYFP[dA]ILC-NH2; disulfide 1-10)
IC50 [1]: ≤ 10 nM
Kd (human uPAR (uPAR-Fc)): < 1.58 nM
